Experimental data as given in ChEMBL document CHEMBL2429833, “A new class of bactericidal agents against S. aureus, MRSA and VRE derived from bisindolylmethane” (Med Chem Res, 2013).
In brackets after ≈: the same amount, converted by molar mass. Activity calls are given as the source filed them. No cut-off for these calls is given here.

Tests used:
[1] = system: Enterococcus faecalis; experiment: Antibacterial activity against vancomycin-resistant Enterococcus faecalis after 24 hrs by microdilution method; type: functional
[2] = system: Pseudomonas aeruginosa; experiment: Antibacterial activity against Pseudomonas aeruginosa ATCC 27853 after 24 hrs by microdilution method; type: functional, organism-based
[3] = system: Staphylococcus aureus; experiment: Antibacterial activity against Staphylococcus aureus ATCC 29213 after 24 hrs by microdilution method; type: functional; conditions: ATCC 29213, 24 h
[4] = system: Staphylococcus aureus; experiment: Antibacterial activity against methicillin-resistant Staphylococcus aureus after 24 hrs by microdilution method; type: functional
[5] = system: Escherichia coli; experiment: Antibacterial activity against Escherichia coli ATCC 25922 after 24 hrs by microdilution method; type: functional, organism-based
[6] = system: PC-3; experiment: Cytotoxicity against human PC3 cells after 48 hrs by MTT assay; type: functional, cell-based
[7] = system: A549; experiment: Cytotoxicity against human A549 cells after 48 hrs by MTT assay; type: functional, cell-based
[8] = system: HeLa; experiment: Cytotoxicity against human HeLa cells after 48 hrs by MTT assay; type: functional, cell-based
[9] = system: Staphylococcus aureus; experiment: Bactericidal activity against methicillin-resistant Staphylococcus aureus after 24 hrs; type: functional
[10] = system: Enterococcus faecalis; experiment: Bactericidal activity against vancomycin-resistant Enterococcus faecalis after 24 hrs; type: functional
[11] = system: Staphylococcus aureus; experiment: Bactericidal activity against Staphylococcus aureus ATCC 29213 after 24 hrs; type: functional; conditions: ATCC 29213, 24 h

| Structure (SMILES) | MIC [1] [µg/mL] | Activity [2] | MIC [3] [µg/mL] | MIC [4] [µg/mL] | Activity [5] | IC50 [6] [µM] | IC50 [7] [µM] | IC50 [8] [µM] | MBC [9] [µg/mL] | MBC [10] [µg/mL] | MBC [11] [µg/mL] |
| --- | --- | --- | --- | --- | --- | --- | --- | --- | --- | --- | --- |
| CC(c1ccccc1)(c1c[nH]c2ccc(Br)cc12)c1c[nH]c2ccc(Br)cc12 | > 256 | inactive | > 256 | > 256 | inactive |  |  |  |  |  |  |
| N#Cc1ccc2[nH]cc(C(c3ccc(O)cc3)c3c[nH]c4ccc(C#N)cc34)c2c1 | > 256 | inactive | > 256 | > 256 | inactive |  |  |  |  |  |  |
| Fc1ccc(C(c2cn(Cc3ccc(Br)cc3)c3ccc(Br)cc23)c2cn(Cc3ccc(Br)cc3)c3ccc(Br)cc23)cc1 | > 128 |  | > 128 | > 128 |  | 43.7 | 24.7 | 49 |  |  |  |
| CN(C)c1ccc(C(c2c[nH]c3ccc(Br)cc23)c2c[nH]c3ccc(Br)cc23)cc1 | 256 (≈ 489 µM) | inactive | 64 (≈ 122 µM) | 128 (≈ 245 µM) | inactive |  |  |  |  |  |  |
| CCCCCCCCC(c1c[nH]c2ccc(Br)cc12)c1c[nH]c2ccc(Br)cc12 | > 256 | inactive | > 256 | > 256 | inactive |  |  |  |  |  |  |
| CCCCCCCC(c1c[nH]c2ccc(Br)cc12)c1c[nH]c2ccc(Br)cc12 | > 256 | inactive | > 256 | > 256 | inactive |  |  |  |  |  |  |
| O=[N+]([O-])c1ccc2[nH]cc(C(c3ccc(F)cc3)c3c[nH]c4ccc([N+](=O)[O-])cc34)c2c1 | > 256 | inactive | > 256 | > 256 | inactive |  |  |  |  |  |  |
| COc1ccc(C(c2c[nH]c3ccc(Br)cc23)c2c[nH]c3ccc(Br)cc23)cc1OC | 256 (≈ 474 µM) | inactive | 128 (≈ 237 µM) | 256 (≈ 474 µM) | inactive |  |  |  |  |  |  |
| O=[N+]([O-])c1ccc(C(c2c[nH]c3ccc(Br)cc23)c2c[nH]c3ccc(Br)cc23)cc1 | 8 (≈ 15.2 µM) | inactive | 4 (≈ 7.62 µM) | 8 (≈ 15.2 µM) | inactive |  |  |  | 8 (≈ 15.2 µM) | 8 (≈ 15.2 µM) | 4 (≈ 7.62 µM) |
| CCOc1ccc2c(c1)OC(C)(C)CC2(c1c[nH]c2ccc(Br)cc12)c1c[nH]c2ccc(Br)cc12 | 32 (≈ 53.8 µM) | inactive | 8 (≈ 13.5 µM) | 32 (≈ 53.8 µM) | inactive |  |  |  | 32 (≈ 53.8 µM) | 32 (≈ 53.8 µM) | 8 (≈ 13.5 µM) |
| N#Cc1ccc2[nH]cc(C(c3ccc(F)cc3)c3c[nH]c4ccc(C#N)cc34)c2c1 | 8 (≈ 20.5 µM) | inactive | 1 (≈ 2.56 µM) | 1 (≈ 2.56 µM) | inactive |  |  |  | 1 (≈ 2.56 µM) | 8 (≈ 20.5 µM) | 1 (≈ 2.56 µM) |
| CCCCCCCCn1cc(C(c2ccc(F)cc2)c2cn(CCCCCCCC)c3ccc(Br)cc23)c2cc(Br)ccc21 | > 128 |  | > 128 | > 128 |  | 44.9 | 38.7 | 32.4 |  |  |  |
| COc1ccc(OC)c(C(c2c[nH]c3ccc(Br)cc23)c2c[nH]c3ccc(Br)cc23)c1 | > 256 | inactive | 128 (≈ 237 µM) | 256 (≈ 474 µM) | inactive |  |  |  |  |  |  |
| O=C(O)c1cn(C2CC2)c2cc(N3CCNCC3)c(F)cc2c1=O [CIPROFLOXACIN] | 64 (≈ 193 µM) |  | 0.25 (≈ 0.754 µM) |  |  |  |  |  | 32 (≈ 96.6 µM) | 64 (≈ 193 µM) | 0.5 (≈ 1.51 µM) |
| Oc1cccc(C(c2c[nH]c3ccc(Br)cc23)c2c[nH]c3ccc(Br)cc23)c1 | 4 (≈ 8.06 µM) | inactive | 1 (≈ 2.02 µM) | 2 (≈ 4.03 µM) | inactive |  |  |  | 2 (≈ 4.03 µM) | 8 (≈ 16.1 µM) | 1 (≈ 2.02 µM) |
| CCCC(c1c[nH]c2ccc(Br)cc12)c1c[nH]c2ccc(Br)cc12 | > 256 | inactive | > 256 | > 256 | inactive |  |  |  |  |  |  |
| Brc1ccc2[nH]cc(C(c3ccc4ccccc4c3)c3c[nH]c4ccc(Br)cc34)c2c1 | 32 (≈ 60.3 µM) | inactive | 16 (≈ 30.2 µM) | 32 (≈ 60.3 µM) | inactive |  |  |  | 32 (≈ 60.3 µM) | 32 (≈ 60.3 µM) | 16 (≈ 30.2 µM) |
| Brc1ccc2[nH]cc(C(c3c[nH]c4ccc(Br)cc34)C3CCCCC3)c2c1 | 32 (≈ 65.8 µM) | inactive | 16 (≈ 32.9 µM) | 32 (≈ 65.8 µM) | inactive |  |  |  | 32 (≈ 65.8 µM) | 32 (≈ 65.8 µM) | 32 (≈ 65.8 µM) |
| Brc1ccc(C(c2c[nH]c3ccc(Br)cc23)c2c[nH]c3ccc(Br)cc23)cc1 | 64 (≈ 114 µM) | inactive | 8 (≈ 14.3 µM) | 32 (≈ 57.2 µM) | inactive |  |  |  | 64 (≈ 114 µM) | 64 (≈ 114 µM) | 16 (≈ 28.6 µM) |

| Structure (SMILES) | MIC [1] [µg/mL] | Activity [2] | MIC [3] [µg/mL] | MIC [4] [µg/mL] | Activity [5] | IC50 [6] [µM] | IC50 [7] [µM] | IC50 [8] [µM] | MBC [9] [µg/mL] | MBC [10] [µg/mL] | MBC [11] [µg/mL] |
| --- | --- | --- | --- | --- | --- | --- | --- | --- | --- | --- | --- |
| Fc1ccc(C(c2cn(Cc3ccccc3)c3ccc(Br)cc23)c2cn(Cc3ccccc3)c3ccc(Br)cc23)cc1 | > 128 |  | > 128 | > 128 |  | 43.1 | 28.2 | 28.3 |  |  |  |
| Clc1ccc(C(c2c[nH]c3ccc(Br)cc23)c2c[nH]c3ccc(Br)cc23)cc1 | 8 (≈ 15.5 µM) | inactive | 4 (≈ 7.77 µM) | 8 (≈ 15.5 µM) | inactive |  |  |  | 8 (≈ 15.5 µM) | 8 (≈ 15.5 µM) | 4 (≈ 7.77 µM) |
| COc1ccc2c(c1)OC(C)(C)CC2(c1c[nH]c2ccc(Br)cc12)c1c[nH]c2ccc(Br)cc12 | 8 (≈ 13.8 µM) | inactive | 4 (≈ 6.89 µM) | 4 (≈ 6.89 µM) | inactive |  |  |  | 8 (≈ 13.8 µM) | 8 (≈ 13.8 µM) | 4 (≈ 6.89 µM) |
| COc1ccc(Cn2cc(C(c3ccc(F)cc3)c3cn(Cc4ccc(OC)cc4)c4ccc(Br)cc34)c3cc(Br)ccc32)cc1 | > 128 |  | > 128 | > 128 |  | 43.5 | 36.4 | 48.5 |  |  |  |
| COc1cccc(C(c2c[nH]c3ccc(Br)cc23)c2c[nH]c3ccc(Br)cc23)c1OC | > 256 | inactive | 256 (≈ 474 µM) | 256 (≈ 474 µM) | inactive |  |  |  |  |  |  |
| Fc1ccc(C(c2cn(Cc3ccc(Cl)cc3)c3ccc(Br)cc23)c2cn(Cc3ccc(Cl)cc3)c3ccc(Br)cc23)cc1 | > 128 |  | > 128 | > 128 |  | 38.5 | 22.8 | 18.5 |  |  |  |
| CC(C)(c1c[nH]c2ccc(Br)cc12)c1c[nH]c2ccc(Br)cc12 | > 256 | inactive | > 256 | > 256 | inactive |  |  |  |  |  |  |
| COc1ccc(Br)cc1C(c1c[nH]c2ccc(Br)cc12)c1c[nH]c2ccc(Br)cc12 | 256 (≈ 435 µM) | inactive | 128 (≈ 217 µM) | 256 (≈ 435 µM) | inactive |  |  |  |  |  |  |
| CC1(C)CC(c2c[nH]c3ccc(Br)cc23)(c2c[nH]c3ccc(Br)cc23)c2ccc(O)cc2O1 | 4 (≈ 7.06 µM) | inactive | 2 (≈ 3.53 µM) | 2 (≈ 3.53 µM) | inactive |  |  |  | 2 (≈ 3.53 µM) | 4 (≈ 7.06 µM) | 2 (≈ 3.53 µM) |
| CCCCCn1cc(C(c2ccc(F)cc2)c2cn(CCCCC)c3ccc(Br)cc23)c2cc(Br)ccc21 | > 128 |  | > 128 | > 128 |  | 40.3 | 32.5 | 27.2 |  |  |  |
| O=[N+]([O-])c1ccc2[nH]cc(C(c3ccc(O)cc3)c3c[nH]c4ccc([N+](=O)[O-])cc34)c2c1 | 2 (≈ 4.67 µM) | inactive | 1 (≈ 2.33 µM) | 1 (≈ 2.33 µM) | inactive |  |  |  | 1 (≈ 2.33 µM) | 2 (≈ 4.67 µM) | 1 (≈ 2.33 µM) |
| COc1ccc(C(c2c[nH]c3ccc(Br)cc23)c2c[nH]c3ccc(Br)cc23)c(OC)c1 | > 256 | inactive | 256 (≈ 474 µM) | 256 (≈ 474 µM) | inactive |  |  |  |  |  |  |
| Oc1ccc(C(c2c[nH]c3ccc(Br)cc23)c2c[nH]c3ccc(Br)cc23)cc1 | 2 (≈ 4.03 µM) | inactive | 0.5 (≈ 1.01 µM) | 1 (≈ 2.02 µM) | inactive |  |  |  | 1 (≈ 2.02 µM) | 2 (≈ 4.03 µM) | 0.5 (≈ 1.01 µM) |
| COc1ccc(S(=O)(=O)n2cc(C(c3ccc(F)cc3)c3cn(S(=O)(=O)c4ccc(OC)cc4)c4ccc(Br)cc34)c3cc(Br)ccc32)cc1 | > 128 |  | > 128 | > 128 |  | > 100 | > 100 | > 100 |  |  |  |
| Fc1ccc(Cn2cc(C(c3ccc(F)cc3)c3cn(Cc4ccc(F)cc4)c4ccc(Br)cc34)c3cc(Br)ccc32)cc1 | > 128 |  | > 128 | > 128 |  | 36.5 | 8.7 | 1.1 |  |  |  |
| COc1ccc(C(c2c[nH]c3ccc(Br)cc23)c2c[nH]c3ccc(Br)cc23)cc1 | 32 (≈ 62.7 µM) | inactive | 16 (≈ 31.4 µM) | 32 (≈ 62.7 µM) | inactive |  |  |  | 32 (≈ 62.7 µM) | 32 (≈ 62.7 µM) | 32 (≈ 62.7 µM) |
| c1ccc(C(c2c[nH]c3ccccc23)c2c[nH]c3ccccc23)cc1 | > 256 | inactive | > 256 | > 256 | inactive |  |  |  |  |  |  |
| Brc1ccc2[nH]cc(C(c3ccccc3)c3c[nH]c4ccc(Br)cc34)c2c1 | 256 (≈ 533 µM) | inactive | 256 (≈ 533 µM) | 256 (≈ 533 µM) | inactive |  |  |  |  |  |  |
